Measured values taken from ChEMBL document CHEMBL1129874, “A SHORT AND EFFICIENT SYNTHESIS OF ZAMIFENACIN A MUSCARINIC M3 RECEPTOR ANTAGONIST” (Bioorg Med Chem Lett, 1997).
The source made the active and inactive calls.

Legend:
Homo sapiens [1] = organism: Homo sapiens; test: Compound was tested for the inhibition of the small bowel motility in humans; Active; assay type: functional, organism-based
Homo sapiens [2] = organism: Homo sapiens; test: Compound was tested for the inhibition of the colonic motility in humans; Active; assay type: functional, organism-based
[3] = target: T1, Muscarinic acetylcholine receptor M2 (Homo sapiens) (UniProt P08172); test: Evaluated for the in vitro antagonistic activity against muscarinic M2 receptor; Active; assay type: functional
T1 sequence (whole entry): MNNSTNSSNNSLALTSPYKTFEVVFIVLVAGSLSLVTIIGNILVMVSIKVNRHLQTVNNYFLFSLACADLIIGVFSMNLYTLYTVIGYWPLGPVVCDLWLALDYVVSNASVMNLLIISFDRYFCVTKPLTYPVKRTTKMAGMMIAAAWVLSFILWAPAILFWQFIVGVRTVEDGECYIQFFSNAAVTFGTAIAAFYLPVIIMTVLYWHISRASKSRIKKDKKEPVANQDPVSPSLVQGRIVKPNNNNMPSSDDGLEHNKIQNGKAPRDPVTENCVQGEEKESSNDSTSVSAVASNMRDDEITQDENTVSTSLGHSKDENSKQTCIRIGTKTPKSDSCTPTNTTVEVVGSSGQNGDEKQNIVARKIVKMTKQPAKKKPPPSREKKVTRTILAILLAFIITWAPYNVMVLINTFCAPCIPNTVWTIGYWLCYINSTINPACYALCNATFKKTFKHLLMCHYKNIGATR

[4] = target: Muscarinic acetylcholine receptor M3 (Homo sapiens) (UniProt P20309); test: Evaluated for the in vivo antagonistic activity against muscarinic M3 receptor; Active; assay type: functional, organism-based
Muscarinic acetylcholine receptor M3 (Homo sapiens), sequence (P20309 whole entry, looked up): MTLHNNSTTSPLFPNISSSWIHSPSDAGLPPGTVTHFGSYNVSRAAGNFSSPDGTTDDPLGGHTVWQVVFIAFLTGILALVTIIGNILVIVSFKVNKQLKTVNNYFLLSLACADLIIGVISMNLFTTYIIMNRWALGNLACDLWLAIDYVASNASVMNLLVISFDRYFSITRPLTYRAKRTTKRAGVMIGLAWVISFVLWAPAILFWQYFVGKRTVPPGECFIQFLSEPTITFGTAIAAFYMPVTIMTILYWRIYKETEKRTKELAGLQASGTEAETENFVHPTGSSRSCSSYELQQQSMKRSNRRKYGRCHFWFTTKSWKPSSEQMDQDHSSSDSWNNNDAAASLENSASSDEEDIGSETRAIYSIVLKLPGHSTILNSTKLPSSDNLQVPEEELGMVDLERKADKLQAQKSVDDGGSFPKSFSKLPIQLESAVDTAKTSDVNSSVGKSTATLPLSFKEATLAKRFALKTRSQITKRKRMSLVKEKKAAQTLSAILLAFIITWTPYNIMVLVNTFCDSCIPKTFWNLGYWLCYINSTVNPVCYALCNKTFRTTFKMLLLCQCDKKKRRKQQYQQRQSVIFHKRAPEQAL

Canis familiaris = organism: Canis familiaris; test: Compound was tested for the inhibition of the gastrointestinal motility in dogs; Active; assay type: functional, organism-based; conditions: Canis lupus familiaris

Measured: Activity

c1ccc(C(O[C@@H]2CCCN(CCc3ccc4c(c3)OCO4)C2)c2ccccc2)cc1
active: Homo sapiens [1] | Homo sapiens [2] | [3] | [4] | Canis familiaris
